From PMC10101059, “Rational Design of Stapled Antimicrobial Peptides to Enhance Stability and In Vivo Potency against Polymicrobial Sepsis” (Microbiology Spectrum, 2023)
Where two headings read alike, the source gives them in different places. Bridge positions count the residues as written; N and C are the ends. Square brackets hold non-standard residues; d marks the D form. Peptide text beside a SMILES is read from it. R5 = C=CCCC[C@@](C)(N)C(=O)O

Key:
[1] = tested on: NDM1 K. pneumoniae; experiment: microbe, parasite or virus in culture; type: cell-based, Klebsiella pneumoniae
[2] = tested on: E. coli; experiment: microbe, parasite or virus in culture; type: cell-based, Escherichia coli
[3] = tested on: S enterica; experiment: Checkerboard microdilution assay (FICI); type: cell-based, Salmonella enterica
[4] = tested on: MDR A. baumannii 14B001; experiment: microbe, parasite or virus in culture; type: cell-based, Acinetobacter baumannii
Method: (§1) The FICI was measured using a standard checkerboard microdilution assay ([57]). Two-fold dilutions of antibiotics were made across the x axis, and two-fold peptide dilutions were made across the y axis. Next, bacteria were added at 5 × 10^5 CFU/well (A. baumannii), followed by incubation at 37 ± 2°C for 16 to 20 h. FIC indices were calculated according to the following equations: FICI = FIC1 + FIC2; FIC1 = (MIC12 combined)/MIC1; FIC2 = (MIC12 combined)/MIC2. The combined efficacy was estimated as follows: FICI ≤ 0.5, synergistic; 0.5 to 1, additive; 1 to 2, indifferent; ≥2, antagonistic.

[5] = tested on: MDR A. baumannii 2962; experiment: microbe, parasite or virus in culture; type: cell-based, Acinetobacter baumannii
Method: as §1

[6] = tested on: MDR A. baumannii 921; experiment: microbe, parasite or virus in culture; type: cell-based, Acinetobacter baumannii
Method: as §1

[7] = tested on: MDR A. baumannii 1607; experiment: microbe, parasite or virus in culture; type: cell-based, Acinetobacter baumannii
Method: as §1

[8] = tested on: MDR A. baumannii 2982; experiment: microbe, parasite or virus in culture; type: cell-based, Acinetobacter baumannii
Method: as §1

[9] = tested on: MDR A. baumannii 1019; experiment: microbe, parasite or virus in culture; type: cell-based, Acinetobacter baumannii
Method: as §1

[10] = tested on: MDR A. baumannii 1702; experiment: microbe, parasite or virus in culture; type: cell-based, Acinetobacter baumannii
Method: as §1

[11] = tested on: MDR A. baumannii 2998; experiment: Checkerboard microdilution assay (FICI); type: cell-based, Acinetobacter baumannii
Method: as §1

[12] = tested on: MDR A. baumannii 2088; experiment: Checkerboard microdilution assay (FICI); type: cell-based, Acinetobacter baumannii
Method: as §1

[13] = tested on: MDR A. baumannii 1033; experiment: Checkerboard microdilution assay (FICI); type: cell-based, Acinetobacter baumannii
Method: as §1

[14] = tested on: MDR A. baumannii 3618; experiment: Checkerboard microdilution assay (FICI); type: cell-based, Acinetobacter baumannii
Method: as §1

[15] = tested on: MDR A. baumannii 2997; experiment: Checkerboard microdilution assay (FICI); type: cell-based, Acinetobacter baumannii
Method: as §1

[16] = tested on: P. aeruginosae; experiment: microbe, parasite or virus in culture; type: cell-based, Pseudomonas aeruginosa
[17] = tested on: E. aerogenes; experiment: microbe, parasite or virus in culture; type: cell-based, Enterobacter aerogenes
[18] = tested on: MDR A. baumannii 2998; experiment: microbe, parasite or virus in culture; type: cell-based, Acinetobacter baumannii; conditions: MDR 2998
Method: (§2) The antimicrobial assay was performed according to a modified National Committee for Clinical Laboratory Standards (NCCLS) protocol ([41], [42]). Briefly, 5 × 10^5 CFU/mL bacterial cells were treated with various peptide concentrations and incubated at 37 ± 2°C for 16 to 20 h. The lowest concentration with clear wells was recorded as the MIC for each test molecule. The clear wells were further plated in Mueller-Hinton agar (MHA) plates, followed by incubation overnight at 37 ± 2°C. After plating, the lowest concentration at which no growth was observed was recorded as the MBC. For the serum sensitivity assay, the antimicrobial activity of the peptides was tested in medium containing 50% human serum ([43], [44]).

[19] = tested on: MDR A. baumannii 2962; experiment: microbe, parasite or virus in culture; type: cell-based, Acinetobacter baumannii; conditions: MDR 2962
Method: as §2

[20] = tested on: MDR A. baumannii 2088; experiment: microbe, parasite or virus in culture; type: cell-based, Acinetobacter baumannii; conditions: MDR 2088
Method: as §2

[21] = tested on: MDR A. baumannii 921; experiment: microbe, parasite or virus in culture; type: cell-based, Acinetobacter baumannii; conditions: MDR 921
Method: as §2

[22] = tested on: MDR A. baumannii 1033; experiment: microbe, parasite or virus in culture; type: cell-based, Acinetobacter baumannii; conditions: MDR 1033
Method: as §2

[23] = tested on: MDR A. baumannii 3618; experiment: microbe, parasite or virus in culture; type: cell-based, Acinetobacter baumannii; conditions: MDR 3618
Method: as §2

[24] = tested on: MDR A. baumannii 2997; experiment: microbe, parasite or virus in culture; type: cell-based, Acinetobacter baumannii; conditions: MDR 2997
Method: as §2

[25] = tested on: MDR A. baumannii 1607; experiment: microbe, parasite or virus in culture; type: cell-based, Acinetobacter baumannii; conditions: MDR 1607
Method: as §2

[26] = tested on: MDR A. baumannii 2982; experiment: microbe, parasite or virus in culture; type: cell-based, Acinetobacter baumannii; conditions: MDR 2982
Method: as §2

[27] = tested on: MDR A. baumannii 14B0091; experiment: microbe, parasite or virus in culture; type: cell-based, Acinetobacter baumannii; conditions: MDR 14B0091
Method: as §2

[28] = tested on: MDR A. baumannii 1019; experiment: microbe, parasite or virus in culture; type: cell-based, Acinetobacter baumannii; conditions: MDR 1019
Method: as §2

[29] = tested on: MDR A. baumannii 1702; experiment: microbe, parasite or virus in culture; type: cell-based, Acinetobacter baumannii; conditions: MDR 1702
Method: as §2

[30] = tested on: Acinetobacter baumannii; experiment: microbe, parasite or virus in culture; type: cell-based
Method: as §2, with “[44]). The antimicrobial assay was performed in the presence of physiological ions and glucose. The test media were supplemented with MgCl2 (1 mM), CaCl2 (2 mM), NaCl (150 mM), KCl (4.5 mM), NH4Cl (6 μM) ([45], [46]), or glucose (0.2%) ([47]), followed by routine antimicrobial assay as described previously. For the pH sensitivity assay, the antimicrobial assay was performed in media adjusted to pH values ranging from 4 to 12. To estimate the effects of temperature on antimicrobial activity, the peptide was incubated for 1 h at temperatures ranging from 40 to 100°C ([48]), followed by the antimicrobial assay as described above.” for “[44]).”

[31] = tested on: Enterobacter aerogenes; experiment: microbe, parasite or virus in culture; type: cell-based
Method: as §2

[32] = tested on: NDM-1 Klebsiella pneumoniae; experiment: microbe, parasite or virus in culture; type: cell-based; conditions: NDM-1
Method: as §2

[33] = tested on: Pseudomonas aeruginosa; experiment: microbe, parasite or virus in culture; type: cell-based
Method: as §2

[34] = tested on: Escherichia coli; experiment: microbe, parasite or virus in culture; type: cell-based
Method: as §2

[35] = tested on: Staphylococcus aureus; type: cell-based
Method: as §2

[36] = tested on: human red blood cells; type: cell-based
Method: The hemolytic assay was performed after approval from the institutional ethics committee (Academia Sinica Institutional Review Board [IRB]; ID no. AS-IRB02-111075). Blood was collected from healthy humans, and 50 μL of a 2% blood cell suspension in normal saline was treated with an equal volume of peptide at different concentrations. The mixture was then incubated at 37 ± 2°C for 1 h. Next, the cell suspension was centrifuged at 1,000 × g for 10 min. Percent hemolysis was estimated by the absorbance of treated and control supernatant samples at 540 nm ([23], [44]).

[37] = MIC of each agent in combination, TP4-3 and D
[38] = Acinetobacter baumannii, read-out: Single drug treatment MIC

C[C@H]1c2cccc(O)c2C(=O)C2=C(O)[C@]3(O)C(=O)C(C(N)=O)=C(O)[C@@H](N(C)C)[C@@H]3[C@@H](O)[C@@H]21 [D, doxycycline]
100 µM: MIC [5, 38] | MIC [7, 38] | MIC [9, 38] | MIC [12, 38] | MIC [14, 38]
3.13 µM: TP4-3 and meropenem combined MIC [1, 37] | MIC ([17]; Klebsiella aerogenes, read-out: Single drug treatment MIC)
200 µM: MIC [6, 38]
50 µM: MIC ([2]; Escherichia coli, read-out: Single drug treatment MIC) | MIC [4, 38] | TP4-3 and meropenem combined MIC [4, 37] | MIC [8, 38] | MIC [10, 38] | MIC [11, 38] | MIC [13, 38] | MIC [15, 38]
1.56 µM: TP4-3 and meropenem combined MIC [3, 37]
25 µM: MIC ([1]; Klebsiella pneumoniae, read-out: Single drug treatment MIC) | TP4-3 and meropenem combined MIC [5, 37] | TP4-3 and meropenem combined MIC [6, 37] | TP4-3 and meropenem combined MIC [7, 37] | TP4-3 and meropenem combined MIC [8, 37] | TP4-3 and meropenem combined MIC [14, 37] | TP4-3 and meropenem combined MIC [15, 37]
6.25 µM: MIC ([3]; Salmonella enterica, read-out: Single drug treatment MIC) | MIC ([16]; Pseudomonas aeruginosa, read-out: Single drug treatment MIC)
0.78 µM: TP4-3 and meropenem combined MIC [2, 37] | TP4-3 and meropenem combined MIC [17, 37]
12.5 µM: TP4-3 and meropenem combined MIC [9, 37] | TP4-3 and meropenem combined MIC [10, 37] | TP4-3 and meropenem combined MIC [11, 37] | TP4-3 and meropenem combined MIC [12, 37] | TP4-3 and meropenem combined MIC [13, 37] | TP4-3 and meropenem combined MIC [16, 37]

CC[C@H](C)[C@H](NC(=O)[C@H](C)NC(=O)[C@H](CCCCN)NC(=O)CNC(=O)[C@H](C)NC(=O)[C@H](CO)NC(=O)[C@H](Cc1ccccc1)NC(=O)[C@H](CC(C)C)NC(=O)CNC(=O)CNC(=O)[C@@H](NC(=O)[C@@H](NC(=O)[C@H](Cc1c[nH]cn1)NC(=O)[C@H](Cc1c[nH]cn1)NC(=O)[C@@H](NC(=O)[C@@H](N)Cc1ccccc1)[C@@H](C)CC)[C@@H](C)CC)[C@@H](C)CC)C(=O)N[C@@H](Cc1c[nH]cn1)C(=O)N[C@@H](CCCNC(=N)N)C(=O)N[C@@H](CC(C)C)C(=O)N[C@H](C(=O)N[C@@H](CCCNC(=N)N)C(=O)N[C@@H](CCCNC(=N)N)C(=O)N[C@@H](CCCNC(=N)N)C(=O)N[C@@H](CCCNC(=N)N)C(=O)N[C@@H](CCCNC(=N)N)C(=O)O)[C@@H](C)CC [TP4, tilapia piscidin 4] (H-FIHHIIGGLFSAGKAIHRLIRRRRR-OH)
6.25 µM: MBC ([22]; read-out: MBC) | MBC [23] | MBC [32] | MIC [32]
3.13 µM: MIC [23] | MBC [26] | MIC [26] | MBC ([30]; pH 7.4, read-out: MBC) | MIC ([30]; pH 7.4, read-out: MIC) | MBC [34] | MIC [34]
3.13−6.25 μM: MBC ([30]; pH 6) | MIC ([30]; pH 6)
12.5 µM: MBC ([33]; read-out: MBC) | MIC ([33]; read-out: MIC)
<1.56 µM: MIC [18] | MBC ([18]; read-out: MBC) | MBC [19] | MIC [19] | MBC ([20]; read-out: MBC) | MIC ([20]; read-out: MIC) | MBC [21] | MIC [21] | MIC ([22]; read-out: MIC) | MBC ([24]; read-out: MBC) | MIC ([24]; read-out: MIC) | MIC [25] | MBC ([25]; read-out: MBC) | MBC [27] | MIC [27] | MBC [28] | MIC [28] | MBC ([29]; read-out: MBC) | MIC ([29]; read-out: MIC)
0.78 µM: MBC ([30]; pH 10, read-out: MBC) | MIC ([30]; pH 10, read-out: MIC) | MBC [31] | MIC [31]
1.56−3.13 μM: MBC ([30]; pH 8) | MIC ([30]; pH 8)
1.56 µM: MBC [35] | MIC [35]

CC[C@H](C)[C@H](NC(=O)[C@@H](NC(=O)[C@@H](NC(=O)[C@@H](N)Cc1ccccc1)[C@@H](C)CC)[C@@H](C)CC)C(=O)N[C@@H](CCCCN)C(=O)N[C@@H](CCCCN)C(=O)N[C@@H](CO)C(=O)NCC(=O)NCC(=O)N[C@@H](CC(C)C)C(=O)N[C@@H](Cc1ccccc1)C(=O)N[C@@H](CCCCN)C(=O)N[C@@H](CCCCN)C(=O)N[C@@H](CCCCN)C(=O)N[C@@H](C)C(=O)NCC(=O)N[C@@H](C)C(=O)N[C@]1(C)CCCC=CCCC[C@](C)(C(=O)N[C@H](C(=O)N[C@@H](CCCCN)C(=O)N[C@@H](CCCCN)C(=O)O)[C@@H](C)CC)NC(=O)[C@H](CCCCN)NC(=O)[C@H](CCCCN)NC(=O)[C@H](CCCCN)NC1=O [TP4-1] (H-FIIIKKSGGLFKKKAGA[R5]KKK[R5]IKK-OH; staple 18-22; N-terminus and C-terminus assumed)
>25 µM: MBC ([30]; read-out: MBC) | MIC ([30]; read-out: MIC) | MBC [35] | MIC [35]
>100 µM: 15% hemolysis concn [36]
